Measurements from patent US10577322B2, “5-methoxytryptophan and its derivatives and uses thereof” (National Health Research Institutes, priority 2015, dated 2020).

Legend:
[1] = tested on: proinflammatory cytokines; experiment: LPS-induced proinflammatory cytokines in peritoneal macrophages (ELISA); format: cell-based, mouse; conditions: LPS 24 h
Procedure: For peritoneal macrophage isolation, C57BL/6J mice were injected intraperitoneally with 2 ml of 4% thioglycollate. Four days after injection, the peritoneal cavity was washed with 5 ml of ice-cold RPMI1640 medium, and cells from the peritoneal exudates were collected by centrifugation, and suspended in RPMI1640 medium, then seeded on 15-cm dishes and allowed to adhere for 4 h. Floating cells were washed out, and adherent cells were used as peritoneal macrophages in the experiments. The cells were incubated with or without LPS (100 ng/ml) for the indicated time before each experiment, as in the protocol for the RAW264.7 cells.
Cytokine levels in the culture supernatants and serum were determined in microtiter plates (96-well) by a specific sandwich ELISA (Biosource) as previously described (Wu, J. Y. & Kuo, C. C. Pivotal role of ADP-ribosylation factor 6 in Toll-like receptor 9-mediated immune signaling. J Biol Chem 287, 4323-4334 (2012)) (Lee, G. L., et al. TLR 2 induces vascular smooth muscle cell migration through cAMP response element-binding protein-mediated interleukin-6 production. Arterioscler Thromb Vasc Biol 32, 2751-2760 (2012); hereinafter, Lee, G. L., et al.).
Furthermore, peritoneal macrophages were stimulated with LPS with or without 5-MTP. After 24 h, proinflammatory cytokines were measured by ELISA.

CLP = experiment: Cecal ligation and puncture (CLP) model, survival; format: in vivo, mice
Description: To confirm the protective effect of 5-MTP in endotoxemia, we used cecal ligation and puncture (CLP) model in mice. 5-MTP-afforded protection was also observed in mice challenged with CLP.

BALF total cell number = experiment: Cell number in bronchoalveolar lavage fluid (trypan blue exclusion); format: in vivo, mice; conditions: 24 h after LPS
Procedure: Furthermore, bronchoalveolar lavage fluid (BALF) was isolated from mice treated with LPS with or without various concentrations of 5-MTP for 24 h. Cell number in BALF was determined by trypan blue exclusion assay.

[2] = Serum 5-MTP level in mice after 5-MTP administration; format: in vivo; conditions: 5-MTP 23.4 mg/kg
Procedure: To ensure that 5-MTP administration increases serum 5-MTP, we analyzed 5-MTP level at 24 h and 72 h after 5-MTP infusion. Serum 5-MTP concentrations in mice treated with saline or LPS with or without 5-MTP (23.4 mg/kg) at 24 h and 72 h. The error bars denote mean±SD (n=3).

neutrophil infiltration = experiment: Neutrophil infiltration in lung tissues (Ly6G staining); format: in vivo, mice
Procedure: (§1) Prior to immunohistochemical detection of COX-2, iNOS, Ly6g, or cleaved caspase-3 in lung sections, sections were deparaffinized with xylene, progressively rehydrated through graded alcohols. Antigen sites were retrieved by heating the sections on slides in pH 8 EDTA antigen. retrieval (Trilogy; Cell Marque Corporation) in electric pressure cooker for 15 min. […] All antibodies described hereafter were diluted in blocking buffer. Sections were incubated at room temperature for 2 h with primary antibody and then washed in PBST. The sections were incubated with primary antibody amplifier quanta (Thermo) for 10 minutes. After rinsing with PBST, the sections were incubated with HRP Polymer Quanto (Thermo) for 10 minutes and washed three times with PBST. COX-2, iNOS, Ly6g and cleaved caspase-3 were visualized by the addition of DAB Quanto Chromogen: Substrate for 3 minutes. Tissues were also counterstained with hematoxylin.
Thirty min after saline or 5-MTP administration, mice were injected intraperitoneally with LPS at 4 h, 12 h, 16 h and 24 h. Paraffin-embedded lung tissue specimens were subjected to immunohistochemical Ly6G staining for determination of neutrophil infiltration in lung tissues. The results are shown in FIG. 8A, in which scale bars represent 100 μm.

Myeloperoxidase (MPO) = experiment: MPO activity assay in lung tissues; format: in vivo, mice; conditions: 5-MTP 23.4 mg/kg, 16 h
Procedure: Myeloperoxidase (MPO) activity of lung tissue was assayed by Myeloperoxidase fluorometric detection kit (Enzo Life Sciences). In brief, lung tissue specimens were homogenized by Tissuelyser II (Qiagen) in tissue protein extraction buffer (pH 7.4 25 mM Tris buffer, 150 mM NaCl, 0.5% sodium deoxycholate, 2% NP-40 and 0.2% SDS), and centrifuged at 12,000×g for […] at 4° C. The supernatants were removed and the pellets were homogenized by Tissuelyser II for 30 seconds in 1 ml assay buffer with 0.5% hexadecyltrimethylammonium, and then samples were frozen, thawed three times, andcentrifuged at 8,000×g for 20 min. Collected supernatants and standard were mixed with reaction cocktail (50 μM detection reagent and 20 μM hydrogen peroxide in 1X assay buffer at room temperature in the dark. After 30 min incubation, MPO activity was determined by measuring the fluorescence intensity at excitation 530 nm and emission at 600 nm in a fluorescent plate reader.
In addition, MPO activity was determined in lung tissues of mice treated with saline or LPS in the presence or absence of 5-MTP (23.4 mg/kg) for 16 h (n=6 mice/group).

caspase-3 = experiment: Cleaved caspase-3 immunohistochemistry in lung tissues; format: in vivo, mice; conditions: LPS 60 mg/kg, 12 and 16 h
Procedure: as §1
Paraffin-embedded sections were prepared from lung tissues of mice treated with saline or LPS (60 mg/kg) with or without various concentrations of 5-MTP for 12 or 16 h. Activated caspase-3 level in lung tissues was determined by immunohistochemical staining of cleaved caspase-3. The results are shown in FIG. 9A, in which scale bars represent 200 μm.

vascular calcification = experiment: High fat diet-induced arterial calcification in ApoE-deficient mice (von Kossa); format: in vivo; conditions: 23.4 mg/kg 3 times a week i.p., 20 weeks
Procedure: ApoE-deficient mice were fed with on a Western high fat diet containing 1.25% cholesterol and 21% fat (Research Diets) starting at 6 weeks of age. The mice were simultaneously treated with vehicle (PBS) or 5-MTP (23.4 mg/kg body weight, 3 times a week) by intraperitoneal injection. After 20 weeks, the aortic trees were dissected and lesions examined in the aortic arch and its branches. Vascular calcifications in the aortic root were evaluated by von Kossa staining.
Vascular smooth muscle cell (VSMC) calcification is the major phenomenon to induce atherosclerotic vascular calcification in cardiovascular disease (CVD). We next investigated the effect of 5-MTP derivatives on VSMC calcification.

RAW264.7 cells = experiment: Cell viability by MTT assay; format: cell-based, mouse; conditions: 24 h
Procedure: Furthermore, RAW264.7 cells were treated with different concentrations of 5-MTP or 5-MTPE for 24 h. Cell viability was determined by MTT assay. In another experiment, after pretreating RAW264.7 cells with different concentrations of 5-MTP or 5-MTPE for 30 min, cells were stimulated with LPS for 24 h. IL-6 level in culture supernatants was measured by ELISA.

Structure (SMILES): COc1ccc2[nH]cc(C[C@H](N)C(=O)O)c2c1 [5-MTP, 5-methoxytryptophan]
- IL-1β production [1]: inhibited
- IL-6 production [1]: inhibited
- TNF-α production [1]: inhibited
- duration of improved survival (CLP): maintained up to day 6
- survival at day 2 (CLP; 5-MTP 30 mins after surgery): 44.4%
- total cell number in BALF (BALF total cell number): reduced by 5-MTP in a dose-dependent manner
- serum 5-MTP level at 24 h after administration [2]: several-fold over the basal level
- serum 5-MTP level at 72 h [2]: returned to basal level
- neutrophil infiltration in lung tissues (neutrophil infiltration; 5-MTP at 100 mg/kg): reduced the infiltration almost to the basal level
- neutrophil infiltration in lung tissues (neutrophil infiltration; LPS, 4 h, 12 h, 16 h and 24 h): dose-dependently reduced
- lung MPO activity (Myeloperoxidase (MPO)): reduced neutrophil infiltration to the basal level
- cleaved caspase-3 in lung tissues (caspase-3): reduced by 5-MTP
- high fat diet-induced vascular calcification (vascular calcification): prevented

Structure (SMILES): COC(=O)C(N)Cc1c[nH]c2ccc(OC)cc12 (centres unmarked) [5-MTPE, ester-5-MTP]
- cell viability (MTT) (RAW264.7 cells): not cell viability
